Reference: EP1140925B1, “(3,4 DIHYDRO-2H-BENZO[1,4] OXAZINYL-METHYL)- 3-(1H-INDOL-3- YL)-ALKYL -AMINES” (Wyeth, priority 1999, dated 2000)
Where two headings read alike, the source gives them in different places.

Legend:
human 5-HT1A receptor = biological target: T1, human 5-HT1A receptor (Homo sapiens, UniProt P08908); assay: 5-HT1A receptor binding assay with [3H]8-OH-DPAT in CHO cell membranes; settings: [3H]8-OH-DPAT 1.5 nM, membranes of CHO cells expressing human 5-HT1A receptor
T1 construct: expressed in transfected cells
T1 sequence (P08908 1-422): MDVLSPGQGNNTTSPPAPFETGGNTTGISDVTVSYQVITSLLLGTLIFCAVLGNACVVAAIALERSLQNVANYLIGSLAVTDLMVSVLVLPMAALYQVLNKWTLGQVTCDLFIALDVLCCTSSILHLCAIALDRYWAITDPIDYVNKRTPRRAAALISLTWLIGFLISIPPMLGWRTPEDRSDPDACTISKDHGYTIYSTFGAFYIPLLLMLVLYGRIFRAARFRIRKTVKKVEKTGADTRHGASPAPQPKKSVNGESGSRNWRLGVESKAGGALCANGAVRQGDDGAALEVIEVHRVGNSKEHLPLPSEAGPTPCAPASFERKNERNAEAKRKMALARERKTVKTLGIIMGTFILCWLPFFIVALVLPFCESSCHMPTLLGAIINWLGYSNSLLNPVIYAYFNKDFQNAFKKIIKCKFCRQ
Experimental: A stable Chinese hamster ovary cell line expressing the human 5-HT1A receptor subtype (5H-HT1A.CHO cells) was employed throughout this procedure. Cells were maintained in DMEM supplemented with 10% fetal calf serum, non-essential amino acids and penicillin/ streptomycin.
Cells were grown to 95-100% confluency as a monolayer before membranes were harvested for binding studies. Cells were gently scraped from the culture plates, transferred to centrifuge tubes, and washed twice by centrifugation (at 2000 rpm for 10 min., 4°C) in buffer (50 mM Tris; pH 7.5). The resulting pellets were aliquoted and stored at -80•C until needed. On the day of assay, the cells were thawed on ice, and resuspended in buffer. Studies were conducted using [^3H]8-OH-DPAT as the radioligand. The binding assay was performed in 96 well microtiter plates in a final total volume of 250 µL of buffer. […] Non-specific binding was determined in the presence of 10 µM 5HT. Saturation analysis was conducted by using [^3H]8-OH-DPAT at concentrations ranging from 0.3-30 nM. Following a 30 minute incubation at room temperature, the reaction was terminated by the addition of ice cold buffer and rapid filtration using a M-96 Brandel Cell Harvester through a GF/B filter presoaked for 30 minutes in 0.5% polyethyleneimine.

serotonin transporter = biological target: T2, serotonin transporter (Rattus norvegicus, UniProt P31652); assay: Serotonin transporter affinity, 3H-paroxetine binding to frontal cortical membranes; design: species or system Sprague-Dawley rats; settings: 3H-paroxetine 0.1 nM, head also allows % Inh. @.1 µM
T2 construct: frontal cortical membranes prepared from male Sprague-Dawley rats; from tissue; host or cells: frontal cortex membranes of male Sprague-Dawley rats
T2 sequence (P31652 whole entry): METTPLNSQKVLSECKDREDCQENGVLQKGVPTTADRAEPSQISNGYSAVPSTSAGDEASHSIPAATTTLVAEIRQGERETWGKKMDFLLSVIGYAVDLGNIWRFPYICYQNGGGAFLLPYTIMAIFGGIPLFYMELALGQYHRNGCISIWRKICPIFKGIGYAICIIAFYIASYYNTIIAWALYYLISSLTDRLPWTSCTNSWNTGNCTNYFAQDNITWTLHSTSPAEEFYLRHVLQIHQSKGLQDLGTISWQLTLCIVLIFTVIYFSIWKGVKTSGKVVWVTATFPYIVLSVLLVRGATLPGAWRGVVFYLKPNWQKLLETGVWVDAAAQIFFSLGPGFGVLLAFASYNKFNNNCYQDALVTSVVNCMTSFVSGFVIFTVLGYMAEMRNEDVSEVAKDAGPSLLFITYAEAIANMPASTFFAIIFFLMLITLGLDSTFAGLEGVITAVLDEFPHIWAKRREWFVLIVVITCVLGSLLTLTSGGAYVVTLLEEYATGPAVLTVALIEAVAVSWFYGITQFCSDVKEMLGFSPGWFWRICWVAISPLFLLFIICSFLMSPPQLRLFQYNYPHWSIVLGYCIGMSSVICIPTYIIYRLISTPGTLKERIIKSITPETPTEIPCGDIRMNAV
Experimental: Briefly, frontal cortical membranes prepared from male Sprague-Dawley rats were incubated with ^3H-paroxetine (0.1 nM) for 60 min at 25°C. All tubes also contained either vehicle, test compound (one to eight concentrations), or a saturating concentration of fluoxetine (10 µM) to define specific binding. All reactions were terminated by the addition of ice cold Tris buffer followed by rapid filtration using a Tom Tech filtration device to separate bound from free ^3H-paroxetine.

[1] = read-out: ST (Ki, nM, % Inh. @.1 µM)

| Compound | Ki (human 5-HT1A receptor) [nM] | Ki (serotonin transporter; [1]) [nM] | Ki (serotonin transporter; ST (Ki, nM, % Inh. @.1 µM)) [nM] |
| --- | --- | --- | --- |
| COc1ccc2c(c1)OC(CNCCCc1c[nH]c3ccc(F)cc13)CN2 (stereo not drawn) [Example 17] | 103 | 15 |  |
| Fc1ccc2[nH]cc(CCCNCC3CN(c4ccccc4)c4ccccc4O3)c2c1 (stereo not drawn) [Example 11, [3-(5-Fluoro-1H-indol-3-yl)-propyl]-(4-phenyl-3,4-dihydro-2H-benzo[1,4]oxazin-2-yl-methyl)-amine] |  | 43 |  |
| CCCN1CC(CNCCCc2c[nH]c3ccc(F)cc23)Oc2ccccc21 (stereo not drawn) [Example 14, [3-(5-Fluoro-1H-indol-3-yl)-propyl]-(4-propyl-3,4-dihydro-2H-benzo[1,4]oxazin-2-yl-methyl)-amine] | 16.8 | 26 |  |
| CN1CC(CNCCCc2c[nH]c3ccccc23)Oc2ccccc21 (stereo not drawn) [Example 2] | 5.9 |  | 112 |
| CC(C)N1CC(CNCCCc2c[nH]c3ccc(F)cc23)Oc2ccccc21 (stereo not drawn) [Example 8, [3-(5-Fluoro-1H-indol-3-yl)-propyl]-(4-isopropyl-3,4-dihydro-2H-benzo[1,4]oxazin-2yl-methyl)-amine] | 2.8 | 25 |  |
| Fc1ccc2[nH]cc(CCCNCC3CNc4ccccc4O3)c2c1 (stereo not drawn) [Example 16, (3,4-Dihydro-2H-benzo[1,4]oxazin-2ylmethyl)-[3-(5-fluoro-1H-indol-3-yl)-propyl]-amine] | 11 | 16 |  |
| CCN1CC(CNCCCc2c[nH]c3ccc(F)cc23)Oc2ccccc21 (stereo not drawn) [Example 13, [3-(5-Fluoro-1H-indol-3-yl)-propyl]-(4-ethyl-3,4-dihydro-2H-benzo[1,4]oxazin-2-yl-methyl)-amine] | 15.3 | 15 |  |
| CC(C)CN1CC(CNCCCc2c[nH]c3ccc(F)cc23)Oc2ccccc21 (stereo not drawn) [Example 10] | 8.15 |  | 85 |
| c1ccc(N2CC(CNCCCc3c[nH]c4ccccc34)Oc3ccccc32)cc1 (stereo not drawn) [Example 7, [3-(1H-Indol-3-yl)-propyl]-4-phenyl-3,(4-dihydro-2H-benzo[1,4]oxazin-2-yl-methyl)-amine] | 30.2 |  |  |
| c1ccc(CN2CC(CNCCCc3c[nH]c4ccccc34)Oc3ccccc32)cc1 (stereo not drawn) [Example 3, (4-Benzyl-3,4-dihydro-2H-benzo[1,4]oxazin-2ylmethyl)-[3-(1H-indo-3-yl)-propyl]-amine] | 7.8 |  | 21 |
| Fc1ccc2[nH]cc(CCCNCC3CN(c4ccccc4)c4ccccc4O3)c2c1 (single isomer, unassigned; (+)) [Example 19] |  |  | 40 |
| Fc1ccc2[nH]cc(CCCNCC3CN(c4ccccc4)c4ccccc4O3)c2c1 (single isomer, unassigned; (-)) [Example 18] |  |  | 34 |
| CN1CC(CNCCCc2c[nH]c3ccc(F)cc23)Oc2cc(Cl)ccc21 (stereo not drawn) [Example 15, (7-Chloro-4-methyl-3,4-dihydro-2H-benzo[1,4]oxazin-2ylmethyl)-[3-(5-fluoro-1H-indol-3-yl)-propyl]-amine] | 75.2 | 44 |  |
| CN1CC(CNCCCc2c[nH]c3ccc(F)cc23)Oc2ccccc21 (stereo not drawn) [Example 5, [3-(5-Fluoro-1H-indol-3-yl)-propyl]-(4-methyl-3,4-dihydro-2H-benzo[1,4]oxazin-2-yl-methyl)-amine] | 8.5 | 5.7 |  |
| c1ccc2c(c1)NCC(CNCCCc1c[nH]c3ccccc13)O2 (stereo not drawn) [Example 1] | 6.9 | 79 |  |
| Fc1ccc2[nH]cc(CCCNCC3COc4ccccc4N3)c2c1 (stereo not drawn) [Example 20, (3,4-Dihydro-2H-benzo[1,4]oxazin-3-yl-methyl)-[3-(5-fluoro-1H-indol-3-yl)propyl]-amine] | 12.3 |  |  |
